Results as given in ChEMBL document CHEMBL1137925, “SAR development of a selective 5-HT1D antagonist/serotonin reuptake inhibitor lead using rapid parallel synthesis” (Bioorg Med Chem Lett, 2004).

Experiments:
[1] = target: Sodium-dependent serotonin transporter (Rattus norvegicus, UniProt P31652); test: In vitro binding affinity towards serotonin transporter using [3H]citalopram as radioligand in rat cerebral cortex membranes; type: cell membranes, Membrane
[2] = target: T1, Adrenergic receptor alpha-1 (Rattus norvegicus, UniProt P15823+P23944+P43140); test: Binding affinity determined against alpha-1 adrenergic receptor in rat cortex membranes using [3H]prazosin as radioligand; type: cell membranes
T1 sequence (P15823 whole entry): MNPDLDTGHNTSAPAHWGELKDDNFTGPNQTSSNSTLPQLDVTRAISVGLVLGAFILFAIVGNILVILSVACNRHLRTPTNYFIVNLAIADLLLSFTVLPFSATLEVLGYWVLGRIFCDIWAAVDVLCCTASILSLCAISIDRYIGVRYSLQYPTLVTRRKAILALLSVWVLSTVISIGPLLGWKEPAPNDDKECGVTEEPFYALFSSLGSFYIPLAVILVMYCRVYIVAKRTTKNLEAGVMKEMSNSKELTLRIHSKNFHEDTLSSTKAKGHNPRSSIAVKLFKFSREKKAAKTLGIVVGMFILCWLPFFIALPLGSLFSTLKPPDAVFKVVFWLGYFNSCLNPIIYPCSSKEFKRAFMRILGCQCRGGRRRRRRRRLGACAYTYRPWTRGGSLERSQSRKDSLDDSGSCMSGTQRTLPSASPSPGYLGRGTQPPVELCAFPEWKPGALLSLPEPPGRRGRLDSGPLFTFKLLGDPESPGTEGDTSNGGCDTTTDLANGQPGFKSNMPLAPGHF
T1 sequence (P23944 whole entry): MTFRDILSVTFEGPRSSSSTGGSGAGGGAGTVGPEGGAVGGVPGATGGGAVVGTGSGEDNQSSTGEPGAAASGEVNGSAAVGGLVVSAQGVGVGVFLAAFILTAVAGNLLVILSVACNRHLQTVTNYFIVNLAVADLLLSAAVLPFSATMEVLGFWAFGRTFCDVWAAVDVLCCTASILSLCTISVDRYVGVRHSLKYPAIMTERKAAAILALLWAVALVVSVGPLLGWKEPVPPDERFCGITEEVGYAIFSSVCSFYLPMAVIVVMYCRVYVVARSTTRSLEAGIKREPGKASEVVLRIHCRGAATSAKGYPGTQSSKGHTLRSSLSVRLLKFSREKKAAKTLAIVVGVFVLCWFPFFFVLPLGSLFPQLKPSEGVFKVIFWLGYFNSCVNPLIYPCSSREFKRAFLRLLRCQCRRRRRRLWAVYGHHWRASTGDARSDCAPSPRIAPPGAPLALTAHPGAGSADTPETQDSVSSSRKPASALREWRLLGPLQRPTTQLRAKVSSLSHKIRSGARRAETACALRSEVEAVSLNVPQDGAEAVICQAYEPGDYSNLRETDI
T1 sequence (P43140 whole entry): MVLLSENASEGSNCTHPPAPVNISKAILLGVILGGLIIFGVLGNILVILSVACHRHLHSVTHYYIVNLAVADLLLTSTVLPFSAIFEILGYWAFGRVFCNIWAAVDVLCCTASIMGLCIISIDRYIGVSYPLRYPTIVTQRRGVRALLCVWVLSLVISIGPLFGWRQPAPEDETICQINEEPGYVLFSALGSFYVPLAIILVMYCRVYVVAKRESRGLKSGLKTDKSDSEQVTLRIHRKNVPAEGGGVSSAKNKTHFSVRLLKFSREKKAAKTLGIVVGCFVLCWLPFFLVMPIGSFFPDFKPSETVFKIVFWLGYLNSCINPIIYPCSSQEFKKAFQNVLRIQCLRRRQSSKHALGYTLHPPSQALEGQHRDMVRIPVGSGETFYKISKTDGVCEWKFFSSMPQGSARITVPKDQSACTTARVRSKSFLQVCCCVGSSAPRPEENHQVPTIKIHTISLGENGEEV

D(2) dopamine receptor = D(2) dopamine receptor (Rattus norvegicus, UniProt P61169); test: Binding affinity determined against dopamine receptor D2 in rat caudate membranes using [3H]- raclopride as radioligand; type: cell membranes
[3] = target: 5-hydroxytryptamine receptor 1D (Homo sapiens, UniProt P28221); test: Binding affinity towards human 5-hydroxytryptamine 1D receptor in L-M(tk-) cells using [3H]GR-125743 as radioligand; type: cell-based
[4] = target: 5-hydroxytryptamine receptor 1B (Homo sapiens, UniProt P28222); test: Binding affinity towards human 5-hydroxytryptamine 1B receptor in L-M(tk-) cells using [3H]GR-125743 as radioligand; type: cell-based
Cavia porcellus = species: Cavia porcellus; test: Ability at 30 uM to potentiate potassium-stimulated [3H]5-HT release from preloaded guinea pig cortical slices; type: functional

Sequence of 5-hydroxytryptamine receptor 1B (P28222 whole entry): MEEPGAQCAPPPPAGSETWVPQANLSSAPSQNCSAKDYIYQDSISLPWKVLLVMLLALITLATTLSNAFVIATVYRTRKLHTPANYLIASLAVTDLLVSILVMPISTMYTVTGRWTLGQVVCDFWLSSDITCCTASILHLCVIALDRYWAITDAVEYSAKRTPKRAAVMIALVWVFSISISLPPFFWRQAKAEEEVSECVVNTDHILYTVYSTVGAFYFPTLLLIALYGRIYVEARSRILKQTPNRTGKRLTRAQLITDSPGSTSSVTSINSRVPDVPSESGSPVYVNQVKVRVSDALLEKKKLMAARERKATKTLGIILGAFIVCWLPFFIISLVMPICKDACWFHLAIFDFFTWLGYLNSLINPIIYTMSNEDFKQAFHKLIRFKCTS
Sequence of 5-hydroxytryptamine receptor 1D (P28221 whole entry): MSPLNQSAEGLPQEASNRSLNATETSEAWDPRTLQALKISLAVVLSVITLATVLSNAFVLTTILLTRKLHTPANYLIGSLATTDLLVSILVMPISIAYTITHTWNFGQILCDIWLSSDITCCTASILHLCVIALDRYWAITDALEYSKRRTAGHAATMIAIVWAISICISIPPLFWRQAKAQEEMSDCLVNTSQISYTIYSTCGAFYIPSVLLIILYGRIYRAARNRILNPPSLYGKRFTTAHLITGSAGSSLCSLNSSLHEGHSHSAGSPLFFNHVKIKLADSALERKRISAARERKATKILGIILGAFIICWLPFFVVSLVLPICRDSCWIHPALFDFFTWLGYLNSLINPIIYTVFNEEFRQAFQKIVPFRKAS
Sequence of D(2) dopamine receptor (P61169 whole entry): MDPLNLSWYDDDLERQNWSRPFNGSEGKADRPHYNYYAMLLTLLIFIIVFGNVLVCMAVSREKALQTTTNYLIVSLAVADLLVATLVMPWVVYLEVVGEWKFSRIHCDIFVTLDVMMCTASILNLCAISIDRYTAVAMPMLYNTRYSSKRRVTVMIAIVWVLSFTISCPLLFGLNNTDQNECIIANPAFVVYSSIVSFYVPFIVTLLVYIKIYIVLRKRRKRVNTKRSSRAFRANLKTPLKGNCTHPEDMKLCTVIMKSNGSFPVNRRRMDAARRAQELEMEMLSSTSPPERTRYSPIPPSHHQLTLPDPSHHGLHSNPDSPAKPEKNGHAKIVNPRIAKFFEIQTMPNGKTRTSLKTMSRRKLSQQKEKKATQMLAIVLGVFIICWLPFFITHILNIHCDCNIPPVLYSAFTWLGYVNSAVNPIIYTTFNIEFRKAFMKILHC
Sequence of Sodium-dependent serotonin transporter (P31652 whole entry): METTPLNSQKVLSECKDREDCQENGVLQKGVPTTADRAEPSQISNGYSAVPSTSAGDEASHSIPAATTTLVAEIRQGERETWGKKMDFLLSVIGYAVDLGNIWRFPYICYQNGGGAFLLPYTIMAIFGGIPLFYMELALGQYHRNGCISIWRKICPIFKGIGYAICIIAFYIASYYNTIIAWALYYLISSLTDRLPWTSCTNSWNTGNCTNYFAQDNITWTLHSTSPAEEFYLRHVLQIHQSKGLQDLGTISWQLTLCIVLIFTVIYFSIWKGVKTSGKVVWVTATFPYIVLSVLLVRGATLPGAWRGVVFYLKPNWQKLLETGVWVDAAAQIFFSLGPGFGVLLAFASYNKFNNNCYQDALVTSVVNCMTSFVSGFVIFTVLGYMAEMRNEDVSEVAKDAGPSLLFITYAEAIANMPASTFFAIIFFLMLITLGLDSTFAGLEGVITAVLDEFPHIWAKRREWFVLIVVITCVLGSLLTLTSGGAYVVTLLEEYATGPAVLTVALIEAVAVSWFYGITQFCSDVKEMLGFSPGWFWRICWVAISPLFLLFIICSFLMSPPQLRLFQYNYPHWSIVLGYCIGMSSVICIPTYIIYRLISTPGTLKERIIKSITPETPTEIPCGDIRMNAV

Structure (SMILES)	Ki [1] [nM]	Ki [2] [nM]	Ki (D(2) dopamine receptor) [nM]	Ki [3] [nM]	Ki [4] [nM]	Release (Cavia porcellus) [%]
NC(=O)c1ccc2c(c1)CCO[C@@H]2CCN1CC=C(c2c[nH]c3c(F)cccc23)CC1	0.2	1.7	48	25	199	
NC(=O)c1ccc2c(c1)CCO[C@H]2CCN1CC=C(c2c[nH]c3c(F)cccc23)CC1	0.3	2.8	7	15	387	
NC(=O)c1ccc2c(c1)CCOC2CCN1CC=C(c2ccc(F)c3ccoc23)CC1 (configuration not stated)	1.9	31	52	27		
NC(=O)c1ccc2c(c1)CCOC2CCN1CC=C(c2c[nH]c3cc(Cl)ccc23)CC1 (configuration not stated)	0.38			145	> 1000	
NC(=O)c1ccc2c(c1)CCOC2CCN1CC=C(c2ccc3cc(F)ccc3c2)CC1 (configuration not stated)	2.2	36	491	71	> 1000	
NC(=O)c1ccc2c(c1)CCOC2CCN1CCN(c2c[nH]c3cc(F)ccc23)CC1 (configuration not stated)	19	5.8	7.1	74	310	
Cn1cc(C2=CCN(CCC3OCCc4cc(C(N)=O)ccc43)CC2)c2ccc(F)cc21 (configuration not stated)	0.98	17	73	65	> 1000	
N#Cc1cccc2c(C3=CCN(CCC4OCCc5cc(C(N)=O)ccc54)CC3)c[nH]c12 (configuration not stated)	2.1	134	15	130	> 1000	
C[C@H]1CC(c2c[nH]c3cc(F)ccc23)CCN1CCC1OCCc2cc(C(N)=O)ccc21 (some centres not stated)	0.78	20	86	28	> 1000	
NC(=O)c1ccc2c(c1)CCOC2CCN1CC=C(c2c[nH]c3cc(C(F)(F)F)ccc23)CC1 (configuration not stated)	0.99	190	8.6	122	> 1000	
NC(=O)c1ccc2c(c1)CCOC2CCN1CC=C(c2[nH]nc3cc(F)ccc23)CC1 (configuration not stated)	0.5	2.1	33	24	210	
Cn1nc(C2=CCN(CCC3OCCc4cc(C(N)=O)ccc43)CC2)c2ccc(F)cc21 (configuration not stated)	0.54	16	183	51	> 1000	
NC(=O)c1ccc2c(c1)CCOC2CCN1CCC(c2nsc3cc(F)ccc23)CC1 (configuration not stated)	53			40	200	
NC(=O)c1ccc2c(c1)CCOC2CCN1CC=C(c2c[nH]c3ccc(F)cc23)CC1 (configuration not stated)	1.6	101	2.1	130	> 1000	
NC(=O)c1ccc2c(c1)CCOC2CCN1CCC(c2c[nH]c3cc(F)ccc23)CC1 (configuration not stated)	2	12	19	8.4	131	
NC(=O)c1ccc2c(c1)CCOC2CCN1CCC(c2cccc3ccccc23)CC1 (configuration not stated)	15	30	50	14	73	52
NC(=O)c1ccc2c(c1)CCOC2CCN1CCC(c2c[nH]c3cc(F)ccc23)C1 (configuration not stated)	2.1	1.2	28	40	96	
NC(=O)c1ccc2c(c1)CCOC2CCN1CC=C(c2noc3cc(F)ccc23)CC1 (configuration not stated)	8	3	37	63	155	
NC(=O)c1ccc2c(c1)CCOC2CCN1CC=C(c2cccc3ccccc23)CC1 (configuration not stated)	3.2	224	167	5.4	153	11
NC(=O)c1ccc2c(c1)CCOC2CCN1CC=C(c2csc3cc(F)ccc23)CC1 (configuration not stated)	1	17	3.8	20	186	
NC(=O)c1ccc2c(c1)CCOC2CCN1CC=C(c2coc3cc(F)ccc23)CC1 (configuration not stated)	0.29	2.8	21	28	155	
NC(=O)c1ccc2c(c1)CCOC2CCN1CC=C(c2c[nH]c3c(F)c(F)ccc23)CC1 (configuration not stated)	0.3	16	6.7	57	> 1000	
NC(=O)c1ccc2c(c1)CCOC2CCN1CC=C(c2c[nH]c3c(F)cccc23)CC1 (configuration not stated)	0.76	26	3.8	26	> 1000	
NC(=O)c1ccc2c(c1)CCOC2CCN1CC=C(c2c[nH]c3cc(F)ccc23)CC1 (configuration not stated)	0.11	16	4.7	56	281	36
NC(=O)c1ccc2c(c1)CCOC2CCN1CC=C(c2cccc3ccc(F)cc23)CC1 (configuration not stated)	13	202	87	26	210	
COc1ccc2[nH]cc(C3=CCN(CCC4OCCc5cc(C(N)=O)ccc54)CC3)c2c1 (configuration not stated)	3.5	75	26	31	316	42
NC(=O)c1ccc2c(c1)CCOC2CCN1CC=C(c2c[nH]c3c(Cl)c(Cl)ccc23)CC1 (configuration not stated)	0.28			165	> 1000	
